Molecular target: T1, mGluR2 (Mus musculus, UniProt Q14BI2)
T1 construct: horizontal sections of mGluR2 KO and WT mouse brain and of normal female Wistar rat brain; from tissue; host or cells: mouse brain sections (WT and mGluR2 KO), 20 µm
Test: In vitro autoradiography binding on mGluR2 KO and WT mouse brain sections
Description: In vitro autoradiography studies were performed on horizontal sections of mGluR2 KO and WT mouse brain and of normal female Wistar rat brain (20 μm). The sections were preincubated in 50 mM Tris-HCl (MgCl2 2 mM, CaCl2 2 mM; pH 7.0) for 10 min (two times) at room temperature and dried. Next, the brain sections were incubated with tracer [^11C]-2, [^11C]-5, [^11C]-4, [^11C]-1 or [^18F]-3 diluted in the same Tris-HCl buffer as used for the preincubation additionally containing 0.1% BSA or with this tracer solution in the presence of 10 μM Co. No. 2 or Co. No. 1. The mouse brain sections were incubated with 17 kBq of carbon-11 labeled tracer and 1.7 kBq of fluorine-18 labeled tracer. For the rat brain sections this was 44 kBq of carbon-11 labeled tracer and 0.44 kBq of fluorine-18 labeled tracer. After 30 min of incubation, the brain sections were washed three times for 5 min in ice-cold Tris-HCl 50 mM ((MgCl2 2 mM, CaCl2 2 mM; pH 7.0+0.1% BSA buffer). After a quick dip in purified ice-cold water, the slides were dried. Autoradiograms were obtained by exposing the slides overnight to a high-performance phosphor storage screen (super-resolution screen; Perkin Elmer, Waltham, USA). The screens were read using a Cyclone Plus system (Perkin Elmer) and analysed using Optiquant software (Perkin Elmer). The radioactivity concentration in the autoradiograms was expressed in digital light units (DLU)/mm^2.
To obtain additional information on the specificity of the tracer binding to mGluR2, in vitro autoradiography binding studies were performed on mGluR2 KO and WT mouse brain sections and on normal rat brain sections in presence or absence of a high concentration of mGluR2 NAM compounds (Co. No. 1 or Co. No. 2).

[1] = WT mouse cortex, block with 10 μM Co. No. 1
[2] = WT mouse striatum, block with 10 μM Co. No. 1

T1 sequence (Q14BI2 19-872): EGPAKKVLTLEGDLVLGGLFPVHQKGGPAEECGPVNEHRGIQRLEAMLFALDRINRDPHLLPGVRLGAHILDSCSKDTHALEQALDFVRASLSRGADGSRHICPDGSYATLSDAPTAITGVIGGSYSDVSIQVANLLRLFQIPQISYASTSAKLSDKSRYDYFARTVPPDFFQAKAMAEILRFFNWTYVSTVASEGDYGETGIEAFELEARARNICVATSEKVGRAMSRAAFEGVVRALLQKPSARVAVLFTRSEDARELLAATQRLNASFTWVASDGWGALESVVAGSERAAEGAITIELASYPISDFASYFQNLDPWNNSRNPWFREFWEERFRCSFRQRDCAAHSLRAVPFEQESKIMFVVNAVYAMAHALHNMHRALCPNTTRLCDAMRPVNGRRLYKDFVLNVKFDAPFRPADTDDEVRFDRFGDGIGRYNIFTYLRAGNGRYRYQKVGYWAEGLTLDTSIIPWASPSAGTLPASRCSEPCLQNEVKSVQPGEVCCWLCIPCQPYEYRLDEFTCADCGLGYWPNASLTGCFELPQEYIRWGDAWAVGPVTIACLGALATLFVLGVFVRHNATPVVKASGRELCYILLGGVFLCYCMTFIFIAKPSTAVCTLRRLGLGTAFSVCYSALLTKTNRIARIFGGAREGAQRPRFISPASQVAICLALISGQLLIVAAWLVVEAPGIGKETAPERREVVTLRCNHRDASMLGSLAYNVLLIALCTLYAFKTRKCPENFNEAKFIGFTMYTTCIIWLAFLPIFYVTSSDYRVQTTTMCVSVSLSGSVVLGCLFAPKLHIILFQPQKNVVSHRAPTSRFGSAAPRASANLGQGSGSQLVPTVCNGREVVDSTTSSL

## C[C@H]1CN(c2ccc(C(F)(F)F)cc2)C(=O)c2c(-c3ccnc(N[11CH3])c3)cnn21 [[^11C]-2]
[1]
  Cortex WT (TB)/cortex WT (block Co. No. 1): ~6.7
  spec binding, cortex WT: (~85% spec
[2]
  Striatum WT (TB)/striatum WT (block Co. No. 1): ~8.3
  spec binding, striatum WT: (~88% spec
In words
  difference in tracer binding to WT and mGluR2 KO mouse brain sections: significant difference
Total binding ratio, WT versus mGluR2 KO mouse brain sections, cortex
  Cortex WT (TB)/Cortex KO (TB): ~8.1
Total binding ratio, WT versus mGluR2 KO mouse brain sections, striatum
  Striatum WT (TB)/Striatum KO (TB): ~4.8

— patent publication US10967078B2, “Radiolabelled mGluR2 PET ligands” (Janssen Pharmaceutica NV, priority 2014, dated 2021)
